Results from patent publication US20250326744A1, “PIPERAZINE DERIVATIVE OR SALT THEREOF, AND PHARMACEUTICAL COMPOSITION” (priority 2022, published 2025).
Counter-ions that a name gives are not always drawn.

Tests used:
mexB (PA) strain = test: Combinational effect with antibacterial agent against Pseudomonas aeruginosa (Test Examples 2 and 4): mexB (PA) strain with LVFX, TC or AZT at 1/4 MIC, EC99; format: cell-based; conditions: for EC99, mexB (PA), AZT / EC99, mexB (PA), LVFX / EC99, mexB (PA), TC: Table 52, Test Example 2, 16 to 20 hours culture, OD595; for EC99, mexB (PA), AZT / EC99, combinational effect with AZT, mexB (PA): combined with AZT at 1/4 MIC; for EC99, mexB (PA), LVFX / EC99, combinational effect with LVFX, mexB (PA): combined with LVFX at 1/4 MIC; for EC99, mexB (PA), TC / EC99, combinational effect with TC, mexB (PA): combined with TC at 1/4 MIC; for EC99, combinational effect with AZT, mexB (PA) / EC99, combinational effect with LVFX, mexB (PA) / EC99, combinational effect with TC, mexB (PA): mexB (PA) strain, Test Example 4
Outline: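 P. aeruginosa mexB (PA) strain, lacking MexCD-OprJ, MexEF-OprN and MexXY and overexpressing MexAB-OprM, grown 16–20 h in CAMHB (10^4–5 CFU/well) with LVFX, TC or AZT at ¼ MIC plus test compound at 0–800 μM. Growth read as OD595; EC99 is the lowest compound concentration giving ≥99% growth inhibition.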

S-3769 strain = test: Combinational effect with antibacterial agent against Pseudomonas aeruginosa (Test Examples 2 and 4): S-3769 strain with AMK or GM at 1/4 MIC, EC99; format: cell-based; conditions: for EC99, S-3769 strain, AMK / EC99, S-3769 strain, GM: Table 52, Test Example 2, 16 to 20 hours culture, OD595; for EC99, S-3769 strain, AMK / EC99, combinational effect with AMK, S-3769 strain: combined with AMK at 1/4 MIC; for EC99, S-3769 strain, GM / EC99, combinational effect with GM, S-3769 strain: combined with GM at 1/4 MIC; for EC99, combinational effect with AMK, S-3769 strain / EC99, combinational effect with GM, S-3769 strain: Test Example 4
Outline: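 P. aeruginosa S-3769 (clinical isolate, MexY overexpressed) grown 16–20 h in CAMHB, 10^4 to 5 CFU/well, with AMK or GM at ¼ MIC plus test compound 0–800 μM. Growth read as OD595; EC99 is the lowest compound concentration giving ≥99% growth inhibition.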

Row | SMILES | EC99, mexB (PA), AZT (mexB (PA) strain) | EC99, mexB (PA), LVFX (mexB (PA) strain) | EC99, mexB (PA), TC (mexB (PA) strain) | EC99, S-3769 strain, AMK (S-3769 strain) | EC99, S-3769 strain, GM (S-3769 strain) | EC99, combinational effect with AZT, mexB (PA) (mexB (PA) strain) | EC99, combinational effect with LVFX, mexB (PA) (mexB (PA) strain) | EC99, combinational effect with TC, mexB (PA) (mexB (PA) strain) | EC99, combinational effect with AMK, S-3769 strain (S-3769 strain) | EC99, combinational effect with GM, S-3769 strain (S-3769 strain)
1 | CCOc1cccc(F)c1CN1CCN(C(=O)[C@H](N)C2CCN(CCC3COc4ccccc4C3)CC2)CC1 (stereo partly drawn) [Example 153, Hydrobromide of (2R)-2-amino-2-(1-(2-(chroman-3-yl)ethyl)piperidin-4-yl)-1-(4-(2-ethoxy-6-fluorobenzyl)piperazin-1-yl)ethan-1-one] | C (100 μM<EC99) | C (100 μM<EC99) | C (100 μM<EC99) | S (EC99≤12.5 μM) | S (EC99≤12.5 μM) | – | – | – | – | –
2 | CCOc1cccc(F)c1CN1CCN(C(=O)[C@H](N)C2CCN(CCn3ccc4ccccc43)CC2)CC1 [Example 159, Hydrobromide of (R)-2-(1-(2-(1H-indol-1-yl)ethyl)piperidin-4-yl)-2-amino-1-(4-(2-ethoxy-6-fluorobenzyl)piperazin-1-yl)ethan-1-one] | C (100 μM<EC99) | C (100 μM<EC99) | C (100 μM<EC99) | B (25 μM<EC99≤100 μM) | C (100 μM<EC99) | – | – | – | – | –
3 | CCOc1cccc(F)c1CN1CCN(C(=O)CN2CCC(O)(CCc3ccccc3)CC2)CC1 [Example 422, hydrochloride of 1-(4-(2-ethoxy-6-fluorobenzyl)piperazin-1-yl)-2-(4-hydroxy-4-phenethylpiperidin-1-yl)ethan-1-one] | A (12.5 μM<EC99≤25 μM) | B (25 μM<EC99≤100 μM) | A (12.5 μM<EC99≤25 μM) | C (100 μM<EC99) | C (100 μM<EC99) | – | – | – | – | –
4 | CCOc1cccc(F)c1CN1CCN(C(=O)CN2CCC(CN)(CCc3ccccc3)CC2)CC1 [Example 425, hydrobromide of 2-(4-(aminomethyl)-4-phenethylpiperidin-1-yl)-1-(4-(2-ethoxy-6-fluorobenzyl)piperazin-1-yl)ethan-1-one] | C (100 μM<EC99) | C (100 μM<EC99) | C (100 μM<EC99) | B (25 μM<EC99≤100 μM) | B (25 μM<EC99≤100 μM) | – | – | – | – | –
5 | CCOc1cccc(F)c1CN1CCN(C(=O)CN2CCC(CCc3ccccc3)(CNCCN)CC2)CC1 [Example 426, hydrochloride of 2-(4-(((2-aminoethyl)amino)methyl)-4-phenethylpiperidin-1-yl)-1-(4-(2-ethoxy-6-fluorobenzyl)piperazin-1-yl)ethan-1-one] | B (25 μM<EC99≤100 μM) | – | B (25 μM<EC99≤100 μM) | B (25 μM<EC99≤100 μM) | B (25 μM<EC99≤100 μM) | – | – | – | – | –
6 | CCOc1cccc(F)c1CN1CCN(C(=O)[C@H](N)C2CCN(CCc3cc(Cl)ccc3-c3cn[nH]c3)CC2)CC1 [Example 502, Hydrobromide of (R)-2-amino-2-(1-(S-chloro-2-(1H-pyrazol-4-yl)phenethyl)piperidin-4-yl)-1-(4-(2-ethoxy-6-fluorobenzyl)piperazin-1-yl)ethan-1-one] | – | – | – | – | – | C (100 μM<EC99) | B (25 μM<EC99≤100 μM) | B (25 μM<EC99≤100 μM) | S (EC99≤12.5 μM) | S (EC99≤12.5 μM)
7 | CCOc1cccc(F)c1CN1CCN(C(=O)[C@H](N)C2CCN(CCc3cc(Cl)ccc3-c3cncs3)CC2)CC1 [Example 504, Hydrobromide of (R)-2-amino-2-(1-(5-chloro-2-(thiazol-5-yl)phenethyl)piperidin-4-yl)-1-(4-(2-ethoxy-6-fluorobenzyl)piperazin-1-yl)ethan-1-one] | – | – | – | – | – | B (25 μM<EC99≤100 μM) | B (25 μM<EC99≤100 μM) | B (25 μM<EC99≤100 μM) | A (12.5 μM<EC99≤25 μM) | A (12.5 μM<EC99≤25 μM)
8 | CCc1ccccc1CN1CCN(C(=O)[C@H](N)C2CCN(CCc3cc(Cl)ccc3-c3ccccc3)CC2)CC1 [Example 505, Hydrobromide of (R)-2-amino-2-(1-(2-(4-chloro-[1,1-biphenyl]-2-yl)ethyl)piperidin-4-yl)-1-(4-(2-ethylbenzyl)piperazin-1-yl)ethan-1-one] | – | – | – | – | – | B (25 μM<EC99≤100 μM) | B (25 μM<EC99≤100 μM) | B (25 μM<EC99≤100 μM) | B (25 μM<EC99≤100 μM) | B (25 μM<EC99≤100 μM)
9 | N[C@@H](C(=O)N1CCN(Cc2ccccc2C2CC2)CC1)C1CCN(CCc2cc(Cl)ccc2-c2ccccc2)CC1 [Example 507, Hydrobromide of (R)-2-amino-2-(1-(2-(4-chloro-[1,1-biphenyl]-2-yl)ethyl)piperidin-4-yl)-1-(4-(2-cyclopropylbenzyl)piperazin-1-yl)ethan-1-one] | – | – | – | – | – | B (25 μM<EC99≤100 μM) | B (25 μM<EC99≤100 μM) | B (25 μM<EC99≤100 μM) | B (25 μM<EC99≤100 μM) | B (25 μM<EC99≤100 μM)
10 | N[C@@H](C(=O)N1CCN(Cc2ccccc2C(F)(F)F)CC1)C1CCN(CCc2cc(Cl)ccc2-c2ccccc2)CC1 [Example 510, Hydrobromide of (R)-2-amino-2-(1-(2-(4-chloro-[1,1-biphenyl]-2-yl)ethyl)piperidin-4-yl)-1-(4-(2-(trifluoromethyl)benzyl)piperazin-1-yl)ethan-1-one] | – | – | – | – | – | B (25 μM<EC99≤100 μM) | B (25 μM<EC99≤100 μM) | A (12.5 μM<EC99≤25 μM) | A (12.5 μM<EC99≤25 μM) | B (25 μM<EC99≤100 μM)
11 | CCOc1ncccc1CN1CCN(C(=O)[C@H](N)C2CCN(CCc3cc(Cl)ccc3-c3ccccc3)CC2)CC1 [Example 511, Hydrobromide of (R)-2-amino-2-(1-(2-(4-chloro-[1,1-biphenyl]-2-yl)ethyl)piperidin-4-yl)-1-(4-((2-ethoxypyridin-3-yl)methyl)piperazin-1-yl)ethan-1-one] | – | – | – | – | – | B (25 μM<EC99≤100 μM) | C (100 μM<EC99) | B (25 μM<EC99≤100 μM) | B (25 μM<EC99≤100 μM) | A (12.5 μM<EC99≤25 μM)
12 | CCOc1ccncc1CN1CCN(C(=O)[C@H](N)C2CCN(CCc3cc(Cl)ccc3-c3ccccc3)CC2)CC1 [Example 512, Hydrobromide of (R)-2-amino-2-(1-(2-(4-chloro-[1,1-biphenyl]-2-yl)ethyl)piperidin-4-yl)-1-(4-((4-ethoxypyridin-3-yl)methyl)piperazin-1-yl)ethan-1-one] | – | – | – | – | – | B (25 μM<EC99≤100 μM) | B (25 μM<EC99≤100 μM) | B (25 μM<EC99≤100 μM) | A (12.5 μM<EC99≤25 μM) | A (12.5 μM<EC99≤25 μM)
13 | N[C@@H](C(=O)N1CCN(Cc2cccc3c2CCN3)CC1)C1CCN(CCc2cc(Cl)ccc2-c2ccccc2)CC1 [Example 513, Hydrobromide of (R)-2-amino-2-(1-(2-(4-chloro-[1,1-biphenyl]-2-yl)ethyl)piperidin-4-yl)-1-(4-(indolin-4-ylmethyl)piperazin-1-yl)ethan-1-one] | – | – | – | – | – | B (25 μM<EC99≤100 μM) | B (25 μM<EC99≤100 μM) | B (25 μM<EC99≤100 μM) | B (25 μM<EC99≤100 μM) | B (25 μM<EC99≤100 μM)
14 | N[C@@H](C(=O)N1CCN(Cc2cccc3c2CCCO3)CC1)C1CCN(CCc2cc(Cl)ccc2-c2ccccc2)CC1 [Example 515, Hydrobromide of (R)-2-amino-2-(1-(2-(4-chloro-[1,1-biphenyl]-2-yl)ethyl)piperidin-4-yl)-1-(4-(chroman-5-ylmethyl)piperazin-1-yl)ethan-1-one] | – | – | – | – | – | B (25 μM<EC99≤100 μM) | B (25 μM<EC99≤100 μM) | A (12.5 μM<EC99≤25 μM) | B (25 μM<EC99≤100 μM) | B (25 μM<EC99≤100 μM)
15 | Cc1ccsc1CN1CCN(C(=O)[C@H](N)C2CCN(CCc3cc(Cl)ccc3-c3ccccc3)CC2)CC1 [Example 516, Hydrobromide of (R)-2-amino-2-(1-(2-(4-chloro-[1,1-biphenyl]-2-yl)ethyl)piperidin-4-yl)-1-(4-((3-methylthiophen-2-yl)methyl)piperazin-1-yl)ethan-1-one] | – | – | – | – | – | B (25 μM<EC99≤100 μM) | B (25 μM<EC99≤100 μM) | B (25 μM<EC99≤100 μM) | B (25 μM<EC99≤100 μM) | B (25 μM<EC99≤100 μM)
